Results taken from ChEMBL document CHEMBL3045835, “Comparative study of conventional and microwave-assisted synthesis of some Schiff bases and their potential as antimicrobial agents” (2012).
Converted amounts (≈) assume the structure as drawn.

What was measured:
Type in all cases: functional
[1] = tested on: Pseudomonas aeruginosa; assay: Antibacterial activity against Pseudomonas aeruginosa MTCC 424 at 500 ug/ml after 18 hr by cup-plate method; conditions: MTCC 424, 18 h, read-out: DIZ
[2] = tested on: Pseudomonas aeruginosa; assay: Antibacterial activity against Pseudomonas aeruginosa MTCC 424 at 200 ug/ml after 18 hr by cup-plate method; conditions: MTCC 424, 18 h, read-out: DIZ
[3] = tested on: Pseudomonas aeruginosa; assay: Antibacterial activity against Pseudomonas aeruginosa MTCC 424 at 100 ug/ml after 18 hr by cup-plate method; conditions: MTCC 424, 18 h, read-out: DIZ
[4] = tested on: Micrococcus luteus; assay: Antibacterial activity against Micrococcus luteus MTCC 1538 at 1500 ug/ml after 18 hr by cup-plate method; conditions: MTCC 1538, 18 h, read-out: DIZ
[5] = tested on: Micrococcus luteus; assay: Antibacterial activity against Micrococcus luteus MTCC 1538 at 1000 ug/ml after 18 hr by cup-plate method; conditions: MTCC 1538, 18 h, read-out: DIZ
[6] = tested on: Micrococcus luteus; assay: Antibacterial activity against Micrococcus luteus MTCC 1538 at 500 ug/ml after 18 hr by cup-plate method; conditions: MTCC 1538, 18 h, read-out: DIZ
[7] = tested on: Micrococcus luteus; assay: Antibacterial activity against Micrococcus luteus MTCC 1538 at 200 ug/ml after 18 hr by cup-plate method; conditions: MTCC 1538, 18 h, read-out: DIZ
[8] = tested on: Micrococcus luteus; assay: Antibacterial activity against Micrococcus luteus MTCC 1538 at 100 ug/ml after 18 hr by cup-plate method; conditions: MTCC 1538, 18 h, read-out: DIZ
[9] = tested on: Bacillus pumilus; assay: Antibacterial activity against Bacillus pumilus MTCC 1456 at 1500 ug/ml after 18 hr by cup-plate method; conditions: MTCC 1456, 18 h, read-out: DIZ
[10] = tested on: Bacillus pumilus; assay: Antibacterial activity against Bacillus pumilus MTCC 1456 at 1000 ug/ml after 18 hr by cup-plate method; conditions: MTCC 1456, 18 h, read-out: DIZ
[11] = tested on: Bacillus pumilus; assay: Antibacterial activity against Bacillus pumilus MTCC 1456 at 500 ug/ml after 18 hr by cup-plate method; conditions: MTCC 1456, 18 h, read-out: DIZ
[12] = tested on: Bacillus pumilus; assay: Antibacterial activity against Bacillus pumilus MTCC 1456 at 200 ug/ml after 18 hr by cup-plate method; conditions: MTCC 1456, 18 h, read-out: DIZ
[13] = tested on: Bacillus pumilus; assay: Antibacterial activity against Bacillus pumilus MTCC 1456 at 100 ug/ml after 18 hr by cup-plate method; conditions: MTCC 1456, 18 h, read-out: DIZ
[14] = tested on: Bacillus subtilis; assay: Antibacterial activity against Bacillus subtilis MTCC 441 at 1000 ug/ml after 18 hr by cup plate method; conditions: MTCC 441, 18 h, read-out: DIZ
[15] = tested on: Bacillus subtilis; assay: Antibacterial activity against Bacillus subtilis MTCC 441 at 1500 ug/ml after 18 hr by cup plate method; conditions: MTCC 441, 18 h, read-out: DIZ
[16] = tested on: Bacillus subtilis; assay: Antibacterial activity against Bacillus subtilis MTCC 441 at 500 ug/ml after 18 hr by cup plate method; conditions: MTCC 441, 18 h, read-out: DIZ
[17] = tested on: Bacillus subtilis; assay: Antibacterial activity against Bacillus subtilis MTCC 441 at 200 ug/ml after 18 hr by cup plate method; conditions: MTCC 441, 18 h, read-out: DIZ
[18] = tested on: Bacillus subtilis; assay: Antibacterial activity against Bacillus subtilis MTCC 441 at 100 ug/ml after 18 hr by cup plate method; conditions: MTCC 441, 18 h, read-out: DIZ
[19] = tested on: Staphylococcus aureus; assay: Antibacterial activity against Staphylococcus aureus MTCC 1430 at 1500 ug/ml after 18 hr by cup-plate method; conditions: MTCC 1430, 18 h, read-out: DIZ
[20] = tested on: Staphylococcus aureus; assay: Antibacterial activity against Staphylococcus aureus MTCC 1430 at 1000 ug/ml after 18 hr by cup-plate method; conditions: MTCC 1430, 18 h, read-out: DIZ
[21] = tested on: Staphylococcus aureus; assay: Antibacterial activity against Staphylococcus aureus MTCC 1430 at 500 ug/ml after 18 hr by cup-plate method; conditions: MTCC 1430, 18 h, read-out: DIZ
[22] = tested on: Staphylococcus aureus; assay: Antibacterial activity against Staphylococcus aureus MTCC 1430 at 200 ug/ml after 18 hr by cup-plate method; conditions: MTCC 1430, 18 h, read-out: DIZ
[23] = tested on: Staphylococcus aureus; assay: Antibacterial activity against Staphylococcus aureus MTCC 1430 at 100 ug/ml after 18 hr by cup-plate method; conditions: MTCC 1430, 18 h, read-out: DIZ
[24] = tested on: Penicillium chrysogenum; assay: Antifungal activity against Penicillium chrysogenum MTCC 161 after 24 hr by broth dilution method; conditions: MTCC 161, 24 h
[25] = tested on: Aspergillus niger; assay: Antifungal activity against Aspergillus niger MTCC 2546 after 24 hr by broth dilution method; conditions: MTCC 2546, 24 h
[26] = tested on: Escherichia coli; assay: Antibacterial activity against Escherichia coli MTCC 1573 after 24 hr by broth dilution method; conditions: MTCC 1573, 24 h
[27] = tested on: Pseudomonas fluorescens; assay: Antibacterial activity against Pseudomonas fluorescens MTCC 2421 after 24 hr by broth dilution method; conditions: MTCC 2421, 24 h

Q: For `Cc1cccnc1/N=C/c1cccc2ccccc12`, which zone of inhibition at 500 µg/mL [1] is on record?
A: 14 mm

Q: And the zone of inhibition at 200 µg/mL [2]?
A: 13 mm

Q: What about the zone of inhibition at 100 µg/mL [3] of the same compound?
A: 12 mm

Q: And the zone of inhibition at 1500 µg/mL [4]?
A: 26 mm

Q: What about the zone of inhibition at 1000 µg/mL [5] of the same compound?
A: 24 mm

Q: And the zone of inhibition at 500 µg/mL [6]?
A: 22 mm

Q: What about the zone of inhibition at 200 µg/mL [7] of the same compound?
A: 18 mm

Q: And the zone of inhibition at 100 µg/mL [8]?
A: 16 mm

Q: And the zone of inhibition at 1500 µg/mL [9]?
A: 20 mm

Q: And the zone of inhibition at 1000 µg/mL [10]?
A: 19 mm

Q: What about the zone of inhibition at 500 µg/mL [11] of the same compound?
A: 18 mm

Q: What about the zone of inhibition at 200 µg/mL [12] of the same compound?
A: 16 mm

Q: And the zone of inhibition at 100 µg/mL [13]?
A: 13 mm

Q: And the zone of inhibition at 1000 µg/mL [14]?
A: 18 mm

Q: And the zone of inhibition at 1500 µg/mL [15]?
A: 19 mm

Q: And the zone of inhibition at 500 µg/mL [16]?
A: 16 mm

Q: And the zone of inhibition at 200 µg/mL [17]?
A: 13 mm

Q: And the zone of inhibition at 100 µg/mL [18]?
A: 12 mm

Q: What about the zone of inhibition at 1500 µg/mL [19] of the same compound?
A: 20 mm

Q: And the zone of inhibition at 1000 µg/mL [20]?
A: 18 mm

Q: And the zone of inhibition at 500 µg/mL [21]?
A: 15 mm

Q: What about the zone of inhibition at 200 µg/mL [22] of the same compound?
A: 13 mm

Q: And the zone of inhibition at 100 µg/mL [23]?
A: 10 mm

Q: What about the MIC [24] of the same compound?
A: 400 µg/mL (≈ 1620 µM)

Q: And the MIC [25]?
A: 200 µg/mL (≈ 812 µM)

Q: And the MIC [26]?
A: 200 µg/mL (≈ 812 µM)

Q: And the MIC [27]?
A: 300 µg/mL (≈ 1220 µM)
